Blank lines part the entries; values can stand above or below the molecule they belong to.
Experiment: Effect of temperature (and pH) on the stability of the solution (purity)
Format: physicochemical
Conditions: 7% solution in water

Purity(%) at day 0 (pH 1.0, day 0): 98.1 ± 0.3%
Purity(%) at day 21 (5° C.) (pH 1.0, day 21, 5° C.): 92.9 ± 0.3%
Purity(%) at day 21 (25° C.) (pH 1.0, day 21, 25° C.): 69.2 ± 0.3%
Purity(%) at day 21 (40° C.) (pH 1.0, day 21, 40° C.): 11.3 ± 0.3%
Purity (%) at day 21 (60° C.) (pH 1.0, day 21, 60° C.): 0%
Purity(%) at day 0 (pH 2.0, day 0): 98.2 ± 0.3%
Purity(%) at day 21 (5° C.) (pH 2.0, day 21, 5° C.): 96.1 ± 0.3%
Purity(%) at day 21 (25° C.) (pH 2.0, day 21, 25° C.): 83.0 ± 0.3%
Purity(%) at day 21 (40° C.) (pH 2.0, day 21, 40° C.): 20.5 ± 0.3%
Purity (%) at day 21 (60° C.) (pH 2.0, day 21, 60° C.): 0%
Purity(%) at day 0 (pH 3.0, day 0): 98.3 ± 0.2%
Purity(%) at day 21 (5° C.) (pH 3.0, day 21, 5° C.): 97.5 ± 0.2%
Purity(%) at day 21 (25° C.) (pH 3.0, day 21, 25° C.): 94.0 ± 0.3%
Purity(%) at day 21 (40° C.) (pH 3.0, day 21, 40° C.): 45.3 ± 0.2%
Purity (%) at day 21 (60° C.) (pH 3.0, day 21, 60° C.): 0%
Purity(%) at day 0 (pH 3.7, day 0): 98.5 ± 0.1%
Purity(%) at day 21 (5° C.) (pH 3.7, day 21, 5° C.): 97.6 ± 0.2%
Purity(%) at day 21 (25° C.) (pH 3.7, day 21, 25° C.): 96.6 ± 0.2%
Purity(%) at day 21 (40° C.) (pH 3.7, day 21, 40° C.): 51.9 ± 0.2%
Purity (%) at day 21 (60° C.) (pH 3.7, day 21, 60° C.): 11.3 ± 0.3%
Purity(%) at day 0 (pH 4.0, day 0): 98.6 ± 0.1%
Purity(%) at day 21 (5° C.) (pH 4.0, day 21, 5° C.): 98.0 ± 0.1%
Purity(%) at day 21 (25° C.) (pH 4.0, day 21, 25° C.): 96.7 ± 0.2%
Purity(%) at day 21 (40° C.) (pH 4.0, day 21, 40° C.): 62.7 ± 0.2%
Purity (%) at day 21 (60° C.) (pH 4.0, day 21, 60° C.): 18.6 ± 0.2%
Purity(%) at day 0 (pH 4.3, day 0): 98.6 ± 0.1%
Purity(%) at day 21 (5° C.) (pH 4.3, day 21, 5° C.): 98.0 ± 0.1%
Purity(%) at day 21 (25° C.) (pH 4.3, day 21, 25° C.): 96.7 ± 0.1%
Purity(%) at day 21 (40° C.) (pH 4.3, day 21, 40° C.): 63.1 ± 0.2%
Purity (%) at day 21 (60° C.) (pH 4.3, day 21, 60° C.): 17.7 ± 0.2%
Purity(%) at day 0 (pH 4.6, day 0): 98.6 ± 0.1%
Purity(%) at day 21 (5° C.) (pH 4.6, day 21, 5° C.): 98.0 ± 0.1%
Purity(%) at day 21 (25° C.) (pH 4.6, day 21, 25° C.): 96.6 ± 0.1%
Purity(%) at day 21 (40° C.) (pH 4.6, day 21, 40° C.): 50.3 ± 0.2%
Purity (%) at day 21 (60° C.) (pH 4.6, day 21, 60° C.): 12.3 ± 0.2%
Purity(%) at day 0 (pH 5.0, day 0): 98.4 ± 0.2%
Purity(%) at day 21 (5° C.) (pH 5.0, day 21, 5° C.): 97.1 ± 0.2%
Purity(%) at day 21 (25° C.) (pH 5.0, day 21, 25° C.): 92.9 ± 0.2%
Purity(%) at day 21 (40° C.) (pH 5.0, day 21, 40° C.): 39.8 ± 0.2%
Purity (%) at day 21 (60° C.) (pH 5.0, day 21, 60° C.): 2.9 ± 0.2%
Purity(%) at day 0 (pH 6.0, day 0): 98.2 ± 0.2%
Purity(%) at day 21 (5° C.) (pH 6.0, day 21, 5° C.): 94.8 ± 0.2%
Purity(%) at day 21 (25° C.) (pH 6.0, day 21, 25° C.): 86.8 ± 0.2%
Purity(%) at day 21 (40° C.) (pH 6.0, day 21, 40° C.): 20.6 ± 0.3%
Purity (%) at day 21 (60° C.) (pH 6.0, day 21, 60° C.): 0%
Purity(%) at day 0 (pH 7.0, day 0): 98.0 ± 0.2%
Purity(%) at day 21 (5° C.) (pH 7.0, day 21, 5° C.): 89.1 ± 0.3%
Purity(%) at day 21 (25° C.) (pH 7.0, day 21, 25° C.): 60.9 ± 0.2%
Purity(%) at day 21 (40° C.) (pH 7.0, day 21, 40° C.): 7.4 ± 0.3%
Purity (%) at day 21 (60° C.) (pH 7.0, day 21, 60° C.): 0%
Purity(%) at day 0 (pH 8.0, day 0): 97.7 ± 0.3%
Purity(%) at day 21 (5° C.) (pH 8.0, day 21, 5° C.): 78.7 ± 0.3%
Purity(%) at day 21 (25° C.) (pH 8.0, day 21, 25° C.): 47.9 ± 0.3%
Purity(%) at day 21 (40° C.) (pH 8.0, day 21, 40° C.): 0%
Purity (%) at day 21 (60° C.) (pH 8.0, day 21, 60° C.): 0%
SMILES: CCN(CC)CCOC(=O)C(C)c1ccc2oc(-c3ccc(Cl)cc3)nc2c1.Cl (centres unmarked)

Purity(%) at day 0 (pH 1.0, day 0): 97.5 ± 0.3%
Purity(%) at day 21 (5° C.) (pH 1.0, day 21, 5° C.): 89.9 ± 0.3%
Purity(%) at day 21 (25° C.) (pH 1.0, day 21, 25° C.): 63.5 ± 0.3%
Purity(%) at day 21 (40° C.) (pH 1.0, day 21, 40° C.): 9.1 ± 0.3%
Purity (%) at day 21 (60° C.) (pH 1.0, day 21, 60° C.): 0%
Purity(%) at day 0 (pH 2.0, day 0): 97.7 ± 0.2%
Purity(%) at day 21 (5° C.) (pH 2.0, day 21, 5° C.): 93.0 ± 0.2%
Purity(%) at day 21 (25° C.) (pH 2.0, day 21, 25° C.): 77.8 ± 0.3%
Purity(%) at day 21 (40° C.) (pH 2.0, day 21, 40° C.): 19.6 ± 0.3%
Purity (%) at day 21 (60° C.) (pH 2.0, day 21, 60° C.): 0%
Purity(%) at day 0 (pH 3.0, day 0): 97.8 ± 0.2%
Purity(%) at day 21 (5° C.) (pH 3.0, day 21, 5° C.): 96.8 ± 0.2%
Purity(%) at day 21 (25° C.) (pH 3.0, day 21, 25° C.): 91.3 ± 0.2%
Purity(%) at day 21 (40° C.) (pH 3.0, day 21, 40° C.): 40.4 ± 0.2%
Purity (%) at day 21 (60° C.) (pH 3.0, day 21, 60° C.): 0%
Purity(%) at day 0 (pH 3.7, day 0): 97.9 ± 0.1%
Purity(%) at day 21 (5° C.) (pH 3.7, day 21, 5° C.): 97.5 ± 0.1%
Purity(%) at day 21 (25° C.) (pH 3.7, day 21, 25° C.): 95.6 ± 0.2%
Purity(%) at day 21 (40° C.) (pH 3.7, day 21, 40° C.): 55.6 ± 0.2%
Purity (%) at day 21 (60° C.) (pH 3.7, day 21, 60° C.): 8.5 ± 0.2%
Purity(%) at day 0 (pH 4.0, day 0): 98.1 ± 0.1%
Purity(%) at day 21 (5° C.) (pH 4.0, day 21, 5° C.): 97.6 ± 0.1%
Purity(%) at day 21 (25° C.) (pH 4.0, day 21, 25° C.): 95.7 ± 0.1%
Purity(%) at day 21 (40° C.) (pH 4.0, day 21, 40° C.): 57.2 ± 0.2%
Purity (%) at day 21 (60° C.) (pH 4.0, day 21, 60° C.): 23.2 ± 0.2%
Purity(%) at day 0 (pH 4.3, day 0): 98.1 ± 0.1%
Purity(%) at day 21 (5° C.) (pH 4.3, day 21, 5° C.): 97.7 ± 0.2%
Purity(%) at day 21 (25° C.) (pH 4.3, day 21, 25° C.): 95.5 ± 0.1%
Purity(%) at day 21 (40° C.) (pH 4.3, day 21, 40° C.): 58.8 ± 0.3%
Purity (%) at day 21 (60° C.) (pH 4.3, day 21, 60° C.): 25.8 ± 0.2%
Purity(%) at day 0 (pH 4.6, day 0): 97.9 ± 0.1%
Purity(%) at day 21 (5° C.) (pH 4.6, day 21, 5° C.): 97.6 ± 0.1%
Purity(%) at day 21 (25° C.) (pH 4.6, day 21, 25° C.): 95.1 ± 0.1%
Purity(%) at day 21 (40° C.) (pH 4.6, day 21, 40° C.): 54.7 ± 0.2%
Purity (%) at day 21 (60° C.) (pH 4.6, day 21, 60° C.): 16.5 ± 0.2%
Purity(%) at day 0 (pH 5.0, day 0): 97.8 ± 0.2%
Purity(%) at day 21 (5° C.) (pH 5.0, day 21, 5° C.): 95.9 ± 0.2%
Purity(%) at day 21 (25° C.) (pH 5.0, day 21, 25° C.): 91.8 ± 0.2%
Purity(%) at day 21 (40° C.) (pH 5.0, day 21, 40° C.): 36.1 ± 0.2%
Purity (%) at day 21 (60° C.) (pH 5.0, day 21, 60° C.): 4.2 ± 0.2%
Purity(%) at day 0 (pH 6.0, day 0): 97.6 ± 0.3%
Purity(%) at day 21 (5° C.) (pH 6.0, day 21, 5° C.): 93.7 ± 0.2%
Purity(%) at day 21 (25° C.) (pH 6.0, day 21, 25° C.): 78.9 ± 0.2%
Purity(%) at day 21 (40° C.) (pH 6.0, day 21, 40° C.): 18.5 ± 0.2%
Purity (%) at day 21 (60° C.) (pH 6.0, day 21, 60° C.): 0%
Purity(%) at day 0 (pH 7.0, day 0): 97.5 ± 0.3%
Purity(%) at day 21 (5° C.) (pH 7.0, day 21, 5° C.): 89.3 ± 0.2%
Purity(%) at day 21 (25° C.) (pH 7.0, day 21, 25° C.): 59.7 ± 0.3%
Purity(%) at day 21 (40° C.) (pH 7.0, day 21, 40° C.): 7.1 ± 0.3%
Purity (%) at day 21 (60° C.) (pH 7.0, day 21, 60° C.): 0%
Purity(%) at day 0 (pH 8.0, day 0): 97.4 ± 0.4%
Purity(%) at day 21 (5° C.) (pH 8.0, day 21, 5° C.): 77.5 ± 0.3%
Purity(%) at day 21 (25° C.) (pH 8.0, day 21, 25° C.): 39.8 ± 0.3%
Purity(%) at day 21 (40° C.) (pH 8.0, day 21, 40° C.): 0%
Purity (%) at day 21 (60° C.) (pH 8.0, day 21, 60° C.): 0%
SMILES: CCN(CC)CCOC(=O)COc1nn(Cc2ccccc2)c2ccccc12.Cl

— patent US20230157952A1, “METHOD FOR IMPROVING THE STABILITY OF A PHARMACEUTICAL COMPOSITION COMPRISING A HIGH PENETRATION DRUG, AND THE PHARMACEUTICAL COMPOSITION OBTAINED THEREFROM” (Techfields Inc., priority 2020, published 2023)
